Legend:
Wee1 = Wee1 (Homo sapiens, UniProt P30291); assay: selective binding assay for Wee1; settings: in vitro potency
PKMYT1 = molecular target: T1, PKMYT1 (Homo sapiens, UniProt Q99640); assay: selective binding assay for PKMYT1; settings: in vitro potency
T1 sequence (Q99640 1-499): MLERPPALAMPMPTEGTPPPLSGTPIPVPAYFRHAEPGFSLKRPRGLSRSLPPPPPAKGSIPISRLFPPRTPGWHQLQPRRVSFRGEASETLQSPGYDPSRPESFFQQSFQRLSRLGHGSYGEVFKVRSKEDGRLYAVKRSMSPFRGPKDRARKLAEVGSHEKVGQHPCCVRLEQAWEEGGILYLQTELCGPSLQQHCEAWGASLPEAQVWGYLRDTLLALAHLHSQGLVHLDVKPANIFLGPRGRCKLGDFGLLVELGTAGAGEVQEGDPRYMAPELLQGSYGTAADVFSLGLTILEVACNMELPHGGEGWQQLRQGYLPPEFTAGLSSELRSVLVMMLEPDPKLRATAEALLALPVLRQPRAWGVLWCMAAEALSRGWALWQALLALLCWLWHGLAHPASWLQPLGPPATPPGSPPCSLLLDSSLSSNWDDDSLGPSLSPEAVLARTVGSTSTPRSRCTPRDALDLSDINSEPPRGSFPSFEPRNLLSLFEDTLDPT

Chain of Wee1 (P30291 whole entry): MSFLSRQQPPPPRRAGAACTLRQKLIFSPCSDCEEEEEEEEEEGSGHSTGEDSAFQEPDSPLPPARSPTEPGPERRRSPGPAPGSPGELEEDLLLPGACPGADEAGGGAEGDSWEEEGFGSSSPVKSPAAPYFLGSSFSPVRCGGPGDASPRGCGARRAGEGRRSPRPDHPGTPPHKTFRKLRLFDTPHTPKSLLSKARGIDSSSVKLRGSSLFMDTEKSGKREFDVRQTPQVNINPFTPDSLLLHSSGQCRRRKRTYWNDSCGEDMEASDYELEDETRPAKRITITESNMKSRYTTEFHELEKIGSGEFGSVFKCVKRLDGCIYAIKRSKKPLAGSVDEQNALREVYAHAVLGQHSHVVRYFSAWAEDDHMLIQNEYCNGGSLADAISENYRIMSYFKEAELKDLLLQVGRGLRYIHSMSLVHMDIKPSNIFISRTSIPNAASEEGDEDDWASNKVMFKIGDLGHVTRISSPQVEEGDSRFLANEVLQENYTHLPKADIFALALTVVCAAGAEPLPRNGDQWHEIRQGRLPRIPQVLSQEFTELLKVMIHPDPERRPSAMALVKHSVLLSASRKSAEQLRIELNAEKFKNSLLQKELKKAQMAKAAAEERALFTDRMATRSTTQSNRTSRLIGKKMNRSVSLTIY

SMILES | IC50 (Wee1) [nM] | IC50 (PKMYT1) [nM]
Cn1c(=O)c(-c2c(Cl)cccc2Cl)cc2cnc(Nc3ccc(N4CCOCC4)cc3)nc21 [PD173952, 6-(2,6-dichlorophenyl)-8-methyl-2-((4-morpholinophenyl)amino)pyrido[2,3-d]pyrimidin-7(8H)-one] | 5.3 | 46
CCN(CC)CCOc1ccc(Nc2ncc3cc(-c4c(Cl)cccc4Cl)c(=O)n(C)c3n2)cc1 [PD0166285, 6-(2,6-dichlorophenyl)-2-((4-(2-(diethylamino)ethoxy)phenyl)amino)-8-methylpyrido[2,3-d]pyrimidin-7(8H)-one] | – | 8.2
